Results taken from the SangsterLogP compilation.

SMILES | logP
COc1cc2c(cc1OC)OC(C)(C)C=C2 | 2.77
CC1(C)C=Cc2cccc(Cl)c2O1 | 4.06
COc1cc2c(cc1OC)SC(C)(C)C=C2 | 3.52
Cc1c2c(cc3c1OC(C)(C)CC3)C=CC(C)(C)O2 | 6.2
Cc1ccc2c(c1)OC(C)(C)C=C2 | 4.03
CC1(C)C=Cc2c(c3c(c4c2OC(C)(C)CC4)OC(C)(C)CC3)O1 | 5.8
CC1(C)C=Cc2c(ccc3c2CCC(C)(C)O3)O1 | 4.01
CC1(C)C=Cc2cc(Br)c3c(c2O1)CCC(C)(C)O3 | 6.33
CCOc1cc2c(cc1OC)C=CC(C)(C)O2 | 3.36
CCOc1cc2c(cc1Cl)C=CC(C)(C)O2 | 4.89
COc1cc2c(cc1OCC(F)(F)F)C=CC(C)(C)O2 | 4.79
COc1ccc2c(c1)SC(C)(C)C=C2 | 4.32
COCCOCCOCCOc1cc2c(c3c1OC(C)(C)CC3)OC(C)(C)CC2 | 4.86
CC1(C)C=Cc2cc(C(C)(C)C)c3c(c2O1)CCC(C)(C)O3 | 8.17
CC1(C)C=Cc2ccccc2O1 | 3.42
CC1(C)C=Cc2c3c(c4c(c2O1)CCC(C)(C)O4)OC(C)(C)CC3 | 7.67
CCc1cc2c(c3c1OC(C)(C)CC3)OC(C)(C)C=C2 | 6.97
CCc1c2c(cc3c1OC(C)(C)C=C3)C=CC(C)(C)O2 | 6.89
COc1ccc2c(c1)OC(C)(C)C=C2 | 3.46
CCOc1cc2c(cc1Br)C=CC(C)(C)O2 | 5.15
COc1cc2c(cc1OCC(F)(F)F)OC(C)(C)C=C2 | 4.49
CC1(C)C=Cc2ccc(Cl)cc2O1 | 4.55
COc1c2c(cc3c1OC(C)(C)CC3)C=CC(C)(C)O2 | 4.47
CC1(C)C=Cc2cc(Cl)c3c(c2O1)CCC(C)(C)O3 | 6.14
